Data on 2 compounds can be found in article PMC12508057, “Discovery of ETI41 and ETI60: novel selective endosomal Toll-like receptor inhibitors for the treatment of autoimmune diseases” (Experimental & Molecular Medicine, 2025).

The target of one series is T1, hTLR9 (Homo sapiens, UniProt Q9NR96).
T1 construct: human B lymphoblasts (Daudi cells); endogenous in cells; host or cells: Daudi
Kind of series: TLR9 inhibition, ODN2395-induced hTNFα in Daudi. The series is classed as cell-based. How it is done:
(§1) RAW 264.7 and differentiated THP-1 cells were seeded into 96-well plates at 2 × 10^4 cells per well, while Daudi cells were seeded at 5 × 10^4 cells per well. After stabilization for 30 min, cells were stimulated with specific TLR agonists for 4 or 24 h. Supernatants were diluted and transferred to precoated ELISA plates to measure TNF-α secretion using kits from Invitrogen. Optical absorbance was measured using a BioTek Synergy HTX multimode microplate reader, and data were interpolated using BioTek Gen5 software.
One-tailed paired Student’s t-tests were performed using Microsoft Excel (Microsoft). Semi-logarithmic conversions and nonregression curve analyses for calculating 50% lethal concentration (LC50) and 50% inhibitory concentration (IC50) values were conducted using GraphPad Prism 7.0 (GraphPad). The therapeutic index was calculated as […]. Animal experimental results are expressed as mean ± standard deviation and analyzed using SPSS v.20 (IBM SPSS Statistics). Homogeneity of variance was assessed using Levene’s test. […]

The target in another series is T2, TLR4 (Homo sapiens, UniProt O00206).
T2 construct: in differentiated human THP-1 cells; endogenous in cells; host or cells: differentiated THP-1
Kind of series: Surface TLR specificity, TNF-α secretion in differentiated THP-1. In kind it is cell-based. To be noted: 2 and 5 μM, differentiated THP-1, LPS. As for the experimental part: as §1
(§2) The cells were activated with agonistic ligands: […], TLR3 (poly I:C, 2 μg/ml, 24 h), TLR4 (LPS, 10 or 100 ng/ml, 4 h), TLR5 (FLA-ST, 500 ng/ml, 4 h), TLR7 (ORN06/LyoVec, 2 μg/ml, 24 h; and IMQ, 1 μg/ml, 4 h), TLR8 (TL8-506, 2 μg/ml, 24 h) and TLR9 (ODN2395, 1 μM, 4 h) at various concentrations in RAW 264.7 cells, human Daudi cells and THP-1 cells. Data are from at least three independent experiments (n = 3) and statistical differences between the induced case and other cases were analyzed and verified using a one-tailed Student’s t-test (*P < 0.05, **P < 0.01, ***P < 0.001).
(§3) Given the structural similarities among TLR family proteins, achieving high selectivity is challenging. We tested the effects of ETI41 and ETI60 on various surface TLRs to determine their specificity. […] TLRs activate transcription factors, including NF-κB, MAPKs, c-Jun N-terminal kinase (JNK), extracellular signal-regulated kinase (ERK) and IRF7, which regulate cellular functions such as proliferation and apoptosis. Western blot analysis confirmed that ETI41 and ETI60 inhibited IMQ- or ODN2395-induced phosphorylation of MAPKs (p-ERK, p-JNK and p-p38), nuclear translocation of the NF-κB p65 subunit, Iκ-Bα degradation and IRF7 expression in RAW 264.7 cells (Fig. 2a–c and Supplementary Figs. 2 and 3).

The target of the next series is T3, TLR5 (Homo sapiens, UniProt O60602).
T3 construct: in differentiated human THP-1 cells; endogenous in cells; host or cells: differentiated THP-1
Described as above. The series is classed as cell-based. To be noted: 2 and 5 μM, differentiated THP-1, FLA-ST. As for the experimental part: as §1, §2, §3

The subject of a further series is SLE in MRL/lpr mice. Kind of series: MRL/lpr mouse model of SLE. The series is classed as in vivo. To be noted: 30 mg/kg oral daily for 39 days; for Anti-dsDNA antibodies / Antinuclear antibody (ANA) / IgG in the kidney: compared with HCQ 60 mg/kg; for Alopecia and skin rashes: compared with vehicle and HCQ. As for the experimental part:
MRL/MpJ-Fas^lpr/J lupus-prone mice were purchased from Jackson Laboratory to evaluate the effects of ETI41 and ETI60 on the pathophysiology of genetic SLE. This study was approved by the IACUC, Ajou University (approval no. 2019-0046). Fourteen-week-old mice were assigned to the following treatment groups: vehicle (n = 3), ETI60 (n = 3), ETI41 (n = 4) and HCQ (n = 3). These groups were administered daily oral doses of 30 mg/kg ETI41 or ETI60, or 60 mg/kg HCQ for 39 days. All compounds were dissolved in a vehicle comprising ethanol, polyethylene glycol (PEG400) and distilled water at a 1:4:5 ratio. The body weights of the mice were measured every 3 days. Mice were anesthetized in an induction chamber with a gas mixture of 4% isoflurane in 70:30 […] and O2, delivered at a flow rate of 0.8 l/min. Upon completion of the treatment period, paired axillary and popliteal lymph nodes were collected and weighed. Blood samples were taken and maintained in BD Microtainer SST tubes (BD Biosciences), with serum isolated through centrifugation at 3,393g for 30 min at 4 °C. Serum markers, including complement component C3, ANA, anti-dsDNA and total IgG, were evaluated using ELISA kits (MyBioSource). Renal IgG levels were monitored by western blotting using anti-mouse IgG (Thermo Fisher Scientific) and β-actin antibodies (Bethyl Laboratories). Statistical significance among groups was analyzed using IBM SPSS Statistics (v.25.0; IBM Corporation), with statistical significance set at P < 0.05.
Fig. 5 Therapeutic efficacy of ETI41 and ETI60 in SLE mouse model. a Summary of the experimental validation of ETI41 and ETI60 in the MRL/lpr female mouse model of SLE. […] Statistical differences between the induced case and other cases were analyzed and verified using a one-tailed Student’s t-test (*P < 0.05, **P < 0.01, ***P < 0.001).

T2 sequence (O00206 24-839): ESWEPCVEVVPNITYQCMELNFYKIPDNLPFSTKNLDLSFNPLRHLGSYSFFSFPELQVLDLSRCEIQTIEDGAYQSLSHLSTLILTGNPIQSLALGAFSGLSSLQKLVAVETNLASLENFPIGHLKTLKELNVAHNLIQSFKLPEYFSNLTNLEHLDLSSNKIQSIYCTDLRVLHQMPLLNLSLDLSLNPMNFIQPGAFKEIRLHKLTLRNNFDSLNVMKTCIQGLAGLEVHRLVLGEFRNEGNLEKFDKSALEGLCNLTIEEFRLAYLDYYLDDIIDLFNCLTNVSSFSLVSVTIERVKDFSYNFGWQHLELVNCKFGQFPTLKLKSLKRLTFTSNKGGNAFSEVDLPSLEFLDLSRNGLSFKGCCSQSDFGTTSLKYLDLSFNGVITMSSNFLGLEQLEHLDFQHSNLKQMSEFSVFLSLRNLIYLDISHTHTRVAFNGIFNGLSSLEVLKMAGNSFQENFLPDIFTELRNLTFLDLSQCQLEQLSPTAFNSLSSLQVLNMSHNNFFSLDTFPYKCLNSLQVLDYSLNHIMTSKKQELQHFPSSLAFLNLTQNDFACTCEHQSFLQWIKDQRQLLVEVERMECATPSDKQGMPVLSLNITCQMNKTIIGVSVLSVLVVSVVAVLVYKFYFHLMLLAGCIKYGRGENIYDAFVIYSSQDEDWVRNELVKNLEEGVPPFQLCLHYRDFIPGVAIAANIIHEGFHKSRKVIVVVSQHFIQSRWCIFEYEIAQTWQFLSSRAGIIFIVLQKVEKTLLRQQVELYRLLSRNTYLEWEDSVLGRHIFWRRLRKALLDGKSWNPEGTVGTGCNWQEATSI
T2 sequence (Q9Y6Y9 19-160 partner): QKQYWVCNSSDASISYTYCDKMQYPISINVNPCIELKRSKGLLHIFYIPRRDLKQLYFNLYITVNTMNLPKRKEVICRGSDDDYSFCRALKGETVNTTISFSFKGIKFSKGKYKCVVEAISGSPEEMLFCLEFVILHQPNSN
T1 sequence (Q9NR96 26-1032): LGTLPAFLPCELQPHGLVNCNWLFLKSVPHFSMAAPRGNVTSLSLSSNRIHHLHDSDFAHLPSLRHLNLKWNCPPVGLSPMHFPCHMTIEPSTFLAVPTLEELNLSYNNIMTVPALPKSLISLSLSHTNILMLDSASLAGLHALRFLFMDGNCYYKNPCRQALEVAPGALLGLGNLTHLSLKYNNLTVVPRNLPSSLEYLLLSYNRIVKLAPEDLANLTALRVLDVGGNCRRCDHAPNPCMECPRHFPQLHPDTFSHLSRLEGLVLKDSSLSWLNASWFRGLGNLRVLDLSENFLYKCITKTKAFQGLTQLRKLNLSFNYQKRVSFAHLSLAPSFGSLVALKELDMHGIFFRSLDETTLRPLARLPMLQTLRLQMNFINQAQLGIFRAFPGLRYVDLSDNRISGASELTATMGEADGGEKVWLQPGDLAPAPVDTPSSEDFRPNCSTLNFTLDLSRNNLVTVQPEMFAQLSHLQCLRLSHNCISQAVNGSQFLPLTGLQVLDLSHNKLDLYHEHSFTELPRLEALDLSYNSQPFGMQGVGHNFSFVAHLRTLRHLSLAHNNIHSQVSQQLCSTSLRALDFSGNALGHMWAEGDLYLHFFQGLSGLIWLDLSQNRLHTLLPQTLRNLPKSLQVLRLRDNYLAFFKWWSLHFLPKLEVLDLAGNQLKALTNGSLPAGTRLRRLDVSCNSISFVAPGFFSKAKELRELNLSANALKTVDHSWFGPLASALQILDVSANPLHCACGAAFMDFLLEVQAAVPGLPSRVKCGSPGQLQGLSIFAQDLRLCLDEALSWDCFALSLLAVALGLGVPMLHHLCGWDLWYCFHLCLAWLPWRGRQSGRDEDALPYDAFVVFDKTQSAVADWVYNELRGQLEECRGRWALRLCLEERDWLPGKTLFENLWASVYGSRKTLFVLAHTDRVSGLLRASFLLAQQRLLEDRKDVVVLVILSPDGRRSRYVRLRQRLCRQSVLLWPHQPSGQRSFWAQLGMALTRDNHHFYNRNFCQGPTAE
T3 sequence (O60602 21-858): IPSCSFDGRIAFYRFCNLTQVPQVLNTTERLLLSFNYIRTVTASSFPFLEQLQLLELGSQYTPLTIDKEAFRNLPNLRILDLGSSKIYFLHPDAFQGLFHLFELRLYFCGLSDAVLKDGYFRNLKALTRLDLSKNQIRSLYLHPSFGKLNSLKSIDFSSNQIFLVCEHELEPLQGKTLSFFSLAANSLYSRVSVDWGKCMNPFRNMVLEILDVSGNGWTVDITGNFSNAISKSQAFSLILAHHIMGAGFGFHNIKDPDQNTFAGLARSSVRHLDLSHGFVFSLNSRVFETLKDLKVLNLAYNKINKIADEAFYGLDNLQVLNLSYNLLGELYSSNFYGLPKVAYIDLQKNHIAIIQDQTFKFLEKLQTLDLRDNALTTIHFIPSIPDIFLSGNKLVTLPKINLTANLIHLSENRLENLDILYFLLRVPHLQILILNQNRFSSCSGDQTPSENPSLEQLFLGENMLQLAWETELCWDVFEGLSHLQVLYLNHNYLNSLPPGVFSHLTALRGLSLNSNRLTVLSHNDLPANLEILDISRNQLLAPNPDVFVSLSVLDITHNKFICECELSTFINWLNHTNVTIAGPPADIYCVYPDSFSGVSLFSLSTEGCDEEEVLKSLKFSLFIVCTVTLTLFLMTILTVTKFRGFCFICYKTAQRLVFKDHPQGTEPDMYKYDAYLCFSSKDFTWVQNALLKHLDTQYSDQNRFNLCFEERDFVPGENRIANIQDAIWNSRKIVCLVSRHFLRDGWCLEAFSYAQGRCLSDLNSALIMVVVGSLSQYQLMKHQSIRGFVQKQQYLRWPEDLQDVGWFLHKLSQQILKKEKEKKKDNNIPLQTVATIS

For the compound `Cc1cc2c(N)c3c(nc2n1CCCN(C)C)CCCCCC3` [ETI41], the IC50 on hTLR9 is 80.1 nM. Also, the “Inhibition of TLR4 (TNF-α secretion)” value on TLR4 was “neither compound inhibited”. Besides, the “Inhibition of TLR5 (TNF-α secretion)” value on TLR5 is “neither compound inhibited”. In the series on SLE in MRL/lpr mice, the Body weight result is “prevented weight gain or loss”, the Lymph node weights entry is given as “notably lower”, the Anti-dsDNA antibodies entry is recorded as “reduced” and the “Antinuclear antibody (ANA)” value is “reduced”. Moreover, in the series with SLE in MRL/lpr mice, the “IgG in the kidney” value is recorded as “reduced”; the “Alopecia and skin rashes” value is listed as “substantially reduced”.

For `COc1ccc2c3c(N)c4c(nc3n(CCCN(C)C)c2c1)CCCC4` [ETI60], the IC50 on hTLR9 was determined as 20.9 nM. Also, at TLR4, the “Inhibition of TLR4 (TNF-α secretion)” value is “neither compound inhibited”. In addition, at TLR5, the “Inhibition of TLR5 (TNF-α secretion)” value is recorded as “neither compound inhibited”. In addition, in the series on SLE in MRL/lpr mice, the Body weight result was “prevented weight gain or loss”, the Lymph node weights result is “notably lower”, the Anti-dsDNA antibodies result is listed as “reduced” and the “Antinuclear antibody (ANA)” value is “reduced”. Also, in the series on SLE in MRL/lpr mice, the “IgG in the kidney” value is on record as “reduced”; the “Alopecia and skin rashes” value was “substantially reduced”. In addition, the “Complement C3 levels” value with SLE in MRL/lpr mice (serum) was “increased”.
